Measured values taken from PMC8199124, “Design, Synthesis and In-Vitro Biological Evaluation of Antofine and Tylophorine Prodrugs as Hypoxia-Targeted Anticancer Agents” (Molecules, 2021).
In brackets after ≈: the same amount, converted by molar mass. Read-outs that look alike come from different tables or passages of the source.

How the values were obtained:
MCF7 = assay: Cytotoxicity (MTT) under normoxia, MCF7; type: cell-based; settings: Homo sapiens, MCF7, read-out: IC50 MCF7
Protocol: (§1) The cytotoxicity of the compounds 5a–c and their parent alkaloids was evaluated by the 3-[4,5-dimethylthiazole-2-yl]-2,5-diphenyltetrazolium bromide (MTT) assay against 5 cancerous and 2 non-cancerous cell lines (Table 4).
(§2) The eight cell lines HEK293 (Human embryonic kidney 293), CHO-K1 (Chinese hamster ovary K1), MCF-7 cells (Human breast adenocarcinoma), HCT116 (human colorectal carcinoma), RKO (Human rectal carcinoma), SW480 (human colorectal carcinoma), H460 (Human lung cancer), and MRC5 (Normal human foetal lung fibroblast), were obtained from the ATCC. The cell lines were routinely grown in alpha minimum essential medium (α-MEM) containing 5% foetal calf serum (FCS). The appropriate number of cells (HCT116 = 400 cells/well, H460 cells = 600 cells/well) were seeded into 96-well plates under normoxic or hypoxic conditions. Cells were plated in 100 µL α-MEM containing 10% FCS, 10mM D-Glucose and 0.2mM 2′-deoxycytidine. After incubation for 2 h, the compounds were added at the appropriate concentration and incubated for further 4 h. The cells were then washed three times with drug-free α-MEM (containing 5% FCS and pen/strep). The plates were then incubated for 5 days under normoxic conditions. The cells were stained with sulphorhodamine B to measure total cells. The IC50 was determined by interpolation as the compound concentration reducing staining to 50% of controls on the same plate.

HCT116 [1] = assay: Cytotoxicity under normoxia and hypoxia (anaerobic chamber, sulphorhodamine B), HCT116; type: cell-based, human; settings: for IC50: 4 h exposure, 5 days growth
Protocol: (§3) We also checked if the designed prodrugs were able to liberate the active alkaloids in hypoxic tumors by testing them under hypoxic conditions using an anaerobic chamber. The three prodrugs 5a–c and their parent alkaloids as well as the reference compounds PR-104A, the parent alcohol form of the phosphate pre-prodrug PR-104, and evofosfamide were tested using the HCT116 and H460 cell lines under both normoxic and hypoxic conditions (Table 5). The prodrugs were much less cytotoxic than the parent drugs, in agreement with our observations using the other cell lines described above (Figure 6).
(§4) The extent to which a prodrug is deactivated relative to its parent drug under normoxic conditions is defined as the Deactivation Ratio (DR). The DR can be simply calculated as DR = IC50 (prodrug)/IC50 (parent drug).
(§5) The efficacy of prodrug activation under hypoxic conditions can be expressed by the Hypoxia Cytotoxicity Ratio (HCR), which can be calculated for a given prodrug as: HCR = normoxic IC50/hypoxic IC50.
as §2

SW480 = assay: Cytotoxicity (MTT) under normoxia, SW480; type: cell-based; settings: Homo sapiens, SW480, read-out: IC50 SW480
Protocol: as §1, §2

RKO = assay: Cytotoxicity (MTT) under normoxia, RKO; type: cell-based; settings: Homo sapiens, read-out: IC50 RKO
Protocol: as §1, §2

H460 = assay: Cytotoxicity under normoxia and hypoxia (anaerobic chamber, sulphorhodamine B), H460; type: cell-based, human; settings: for IC50: 4 h exposure, 5 days growth
Protocol: as §3, §4, §5, §2

HCT116 [2] = assay: Cytotoxicity (MTT) under normoxia, HCT116; type: cell-based; settings: Homo sapiens, HCT-116, read-out: IC50 HCT116
Protocol: as §1, §2

MRC5 = assay: Cytotoxicity (MTT) under normoxia, MRC5; type: cell-based; settings: Homo sapiens, MRC5, read-out: IC50 MRC5
Protocol: as §1, §2

LogD determination = type: physicochemical; settings: mean ± SE
Protocol: (§6) Water solubility, logD, and PAMPA-BBB were evaluated using the protocols we previously described.

[3] = Solubility in PBS (pH 7.4); type: physicochemical; settings: aqueous buffer, mean ± SE
Protocol: as §6

[4] = Mouse plasma stability test; type: in vitro ADME; settings: 37 °C, up to 24 h, read-out: t1/2 (Mouse Plasma) (converted)
Protocol: (§7) Incubations were carried out in 6 aliquots of 70 μL each in duplicates. […] The reactions were stopped by adding 350 μL of acetonitrile with subsequent plasma proteins sedimentation by centrifuging at 5500 rpm for 5 min. Supernatants were analyzed by LC-MS using Shimadzu VP HPLC system including vacuum degasser, gradient pumps, reverse phase column, column oven and autosampler. The HPLC system was coupled with tandem mass spectrometer API 3000 (PE Sciex, Foster City, CA, USA). Both the positive and negative ion modes of the TurboIonSpray ion source were used. The acquisition and analysis of the data were performed using Analyst 1.5.2 software (PE Sciex, API 3000 mass spectrometer, Foster City, CA, USA). The percentage of the test compounds remaining after incubation in plasma and their half-lives (T1/2) were calculated.

[5] = Human plasma stability test; type: in vitro ADME; settings: 37 °C, up to 24 h, read-out: t1/2 (Human Plasma) (converted)
Protocol: as §7

[6] = BBB-Parallel Artificial Membrane Permeability Assay (BBB-PAMPA); type: in vitro ADME; settings: mean ± SE
Protocol: The physicochemical properties of the new compounds were evaluated (Table 1). […] Consequently, these derivatives lost their BBB penetrability, as predicted by the BBB-Parallel Artificial Membrane Permeability Assay (BBB-PAMPA), whereas their parent alkaloids had free passage through the BBB.
as §6

[7] = Homo sapiens, HCT-116, HCT116, hypoxia, read-out: IC50 (Hypoxia)
[8] = Homo sapiens, HCT-116, HCT116, normoxia, read-out: IC50 (Normoxia)
[9] = Homo sapiens, NCI-H460, H460, hypoxia, read-out: IC50 (Hypoxia)
[10] = Homo sapiens, NCI-H460, H460, normoxia, read-out: IC50 (Normoxia)
[11] = HCT116, HCR = normoxic IC50/hypoxic IC50
[12] = H460, HCR = normoxic IC50/hypoxic IC50

In the case of `COc1cc2c3c(c4cc(OC)c(OC)cc4c2cc1OC)C[N+]1(Cc2c([N+](=O)[O-])ncn2C)CCC[C@@H]1C3.[Br-]` (stereo partly drawn) [Compound 5c, (13aR)-2,3,6,7-tetramethoxy-10-((1-methyl-4-nitro-1H-imidazol-5-yl)methyl)-10,11,12,13,13a,14-hexahydro-9H-dibenzo[f,h]pyrrolo[1,2-b]isoquinolin-10-ium bromide], the IC50 (MCF7) is reported as 8.05 ± 0.343 µM, the “HCR (Hypoxia Cytotoxicity Ratio)” value (HCT116 [1]) is reported as 1.5 and the “DR (Deactivation Ratio)” value (HCT116 [1]; HCT116, normoxia, DR = IC50 (prodrug)/IC50 (parent drug)) is reported as 128. The IC50 (HCT116 [1]; [7]) was 3.02 ± 0.656 µM, the IC50 (HCT116 [1]; [8]) was 9.05 ± 7.59 µM and the IC50 (SW480) was 9.86 ± 1.69 µM. The IC50 (RKO) was 8.82 ± 3.08 µM, the “HCR (Hypoxia Cytotoxicity Ratio)” value (H460) was 7.8 and the “DR (Deactivation Ratio)” value (H460; H460, normoxia, DR = IC50 (prodrug)/IC50 (parent drug)) was 293. For the same compound, the IC50 (H460; [9]) was 6.5 ± 1.81 µM, the IC50 (H460; [10]) was 51 µM and the melting point was 185 to 187 °C. It also gave an IC50 (HCT116 [2]) of 9.02 ± 1.13 µM and an IC50 (MRC5) of 3.94 ± 0.127 µM.

With `Cn1c(COP(=O)(NCCBr)NCCBr)cnc1[N+](=O)[O-]` [Evofosfamide] the “HCR (Hypoxia Cytotoxicity Ratio)” value (HCT116 [1]; [11]) was 85, the IC50 (HCT116 [1]; [7]) was 0.0201 ± 0.003 µM and the IC50 (HCT116 [1]; [8]) was 0.0239 ± 0.007 µM. For the same compound, the “HCR (Hypoxia Cytotoxicity Ratio)” value (H460; [12]) was 251, the IC50 (H460; [9]) was 0.0172 ± 0.001 µM and the IC50 (H460; [10]) was 4.32 ± 1.93 µM.

For `COC(=O)Nc1nc2ccc(C(=O)c3ccccc3)cc2[nH]1` [Mebendazole], the logD (LogD determination) was 3.26 ± 0.01.

For `Cc1nccn1CC1CCc2c(c3ccccc3n2C)C1=O` (stereo not shown) [Ondansetron], the solubility [3] was 96 ± 3 µM (≈ 28.2 µg/mL).

For `CS(=O)(=O)OCCN(CCBr)c1c(C(=O)NCCO)cc([N+](=O)[O-])cc1[N+](=O)[O-]` [PR-104A], the IC50 (HCT116 [1]; HCT116, hypoxia, read-out: IC50 (Hypoxia)) was 0.861 ± 0.122 µM, the IC50 (HCT116 [1]; HCT116, normoxia, read-out: IC50 (Normoxia)) was 16.5 µM and the “HCR (Hypoxia Cytotoxicity Ratio)” value (HCT116 [1]; [11]) was 10.5. For the same compound, the IC50 (H460; H460, hypoxia, read-out: IC50 (Hypoxia)) was 0.533 ± 0.047 µM, the IC50 (H460; H460, normoxia, read-out: IC50 (Normoxia)) was 1.34 ± 0.386 µM and the “HCR (Hypoxia Cytotoxicity Ratio)” value (H460; [12]) was 2.5.

With `CC(C)[N+](C)(CCOC(=O)C1c2ccccc2Oc2ccccc21)C(C)C` [Propantheline] the half-life at 1 μM [4] was < 3 h and the half-life at 1 μM [5] was < 3 h.

In the case of `CNC(=C[N+](=O)[O-])NCCSCc1ccc(CN(C)C)o1` [Ranitidine], the “Permeability (Papp)” value [6] is reported as <−7 Log [10^−6 cm/s].
